# Experimental data reported in ChEMBL document CHEMBL3507680, “University of Dundee, Gates Library screen for HepG2 cell viability”.
# Test: Human HepG2 cell viability assay in 384 well format
# Type: toxicity, cell-based
# Set-up: dose 125 nL, time 70.5 hour; concentration not given beside the values
# Settings: HepG2 cells, read-out: Inhibition
row,SMILES,cytotoxicity at 70.5 h
1,CC(C)c1nnc2n1CC(CNCc1ccc3c(c1)OCCO3)CC2 (centres undefined),-3.48%
2,CC(C)c1cnc(CN(C)C2CCN(CCc3ccncc3)C2)o1 (centres undefined),18.9%
3,COCCCN(Cc1ccncc1)c1cc(C)ncn1,6.24%
4,Cc1cc(NCCNS(=O)(=O)c2cccc(Cl)c2)nc(C)n1,-1%
5,COc1ccc(F)cc1C[S+]([O-])CC(=O)NCC(C)C (centres undefined),-0.815%
6,O=C(Cc1csc(-c2ncccn2)n1)N1CCN2CCCCC2C1 (centres undefined),7.23%
7,CCC1CCCCN1Cc1ncc(-c2ccc(OC)cc2)o1 (centres undefined),18.3%
8,CCc1ncc2c(n1)CN(CCCOc1ccc(C#N)cc1)CC2,-0.432%
9,COCCNC(=O)C1CCCN1S(=O)(=O)c1sc(=O)[nH]c1C (centres undefined),-6.44%
10,Cc1nnc(CN2CCC(Oc3ccc(F)cc3)CC2)o1,0.0555%
11,CCCS(=O)(=O)NCC(C)c1ccc(F)c(F)c1 (centres undefined),6.33%
12,CNC(=O)c1cccc(CCNc2ccc(C#N)cn2)c1,0.174%
13,COCc1csc(NC(=O)NCc2ccc(C)s2)n1,1.09%
14,COc1ccc(F)cc1C[S+]([O-])CC(=O)NCc1ccccc1 (centres undefined),-4.53%
15,Cc1nsc(NCCNS(=O)(=O)c2ccccc2)n1,-1.39%
16,O=C(Nc1cccc(C(F)F)c1)N[C@@H]1C=C[C@H](CO)C1,2.83%
17,COc1cccc2[nH]cc(CCNC(=O)N3CCOCC3C3CC3)c12 (centres undefined),23.2%
18,CNC(=O)c1cccc(CCNc2ccccn2)c1,-0.207%
19,Cc1nc(C)n(CC2CCCCN2CC(=O)NCc2ccccn2)n1 (centres undefined),2.56%
20,c1cncc(CN(Cc2ccc3c(c2)OCCO3)CC2CCCO2)c1 (centres undefined),25.2%
21,OCC1CCCN1c1cc(NCCc2nccs2)ncn1 (centres undefined),0.047%
22,Cc1nc(C)n(CC2CCCN2CC(=O)Nc2ccncc2)n1 (centres undefined),-4.71%
23,Cc1cc(C(=O)CN(Cc2cccnc2)CC2CCCO2)c(C)[nH]1 (centres undefined),-15.9%
24,OCC1CCCN1c1cc(NCc2ccccn2)ncn1 (centres undefined),0.0157%

row,SMILES,cytotoxicity at 70.5 h
1,CC(C)c1nn(C)c(N2CCOCC2)c1CNCc1nncn1C,0.87%
2,Cc1noc(C)c1CNCc1c(C(C)C)nn(C)c1N1CCOCC1,-10.5%
3,Cc1ccsc1CNCc1c(C(C)C)nn(C)c1N1CCOCC1,-20.5%
4,O=C(CCc1ccsc1)N1CCCC(N2CCNC2=O)C1 (centres undefined),-10.5%
5,CN(C)C(=O)C1CCCN1CCCNC(=O)c1ccccc1Cl (centres undefined),4.52%
6,Cc1cc(N2CCC(N(C)C(=O)c3cccs3)CC2)nc(C)n1,-18.8%
7,Cc1cc(C)n(CC2CCCN2C(=O)c2ccc3c(c2)OCCO3)n1 (centres undefined),-12.8%
8,Cc1cnn(CC2CCCCN2C(=O)c2ccc3c(c2)nnn3C)c1 (centres undefined),-1.73%
9,CSCC(CCO)NC(=O)Nc1cc(F)ccc1C (centres undefined),10.3%
10,O=C(NCC1CC1)C1CSCN1S(=O)(=O)c1cc(F)cc(F)c1 (centres undefined),-15.2%
11,c1ccc(-c2cnc(CN(Cc3cccnc3)CC3CCCO3)o2)cc1 (centres undefined),-7.3%
12,Cc1cccc(CC(=O)N2CCOCC2c2c(C)n[nH]c2C)c1 (centres undefined),-18.3%
13,Cc1ccc(CC(=O)N2CCOCC2c2c(C)n[nH]c2C)cc1 (centres undefined),-21.7%
14,Cc1n[nH]c(C)c1C1COCCN1C(=O)Cc1ccccc1F (centres undefined),-0.503%
15,Cc1csc(N2CCN(Cc3nccn3C)CC2C)n1 (centres undefined),-16.3%
16,CC(C)(C)c1cnc(CN(Cc2cccnc2)CC2CCCO2)o1 (centres undefined),-12.3%
17,COC(C)(C)CNC(=O)N1CCCC1c1c(C)n[nH]c1C (centres undefined),-13.9%
18,CCN1CCCC1CN(CCN(C)C)S(=O)(=O)c1ccccc1C#N (centres undefined),29.4%
19,Cc1ccc(CNCC2CCN(CCO)CC2)cc1,39.2%
20,CCOC(=O)N1CCN(C(=O)c2sc(-c3ccccc3)nc2C)CC1,48.7%
21,Cc1ccc(C(=O)NCC2Cc3ccccc3O2)cc1S(C)(=O)=O (centres undefined),-1.47%
22,CC(=O)c1ccc(C(=O)NCC2Cc3ccccc3O2)s1 (centres undefined),23.7%
23,CCS(=O)(=O)c1ccccc1C(=O)NCC1Cc2ccccc2O1 (centres undefined),-3.88%
24,CC(C)S(=O)(=O)c1ccccc1C(=O)NCC1Cc2ccccc2O1 (centres undefined),-1.85%

row,SMILES,cytotoxicity at 70.5 h
1,Cc1ccc(C(=O)N2CCCC(CNS(=O)(=O)C(C)C)C2)cc1 (centres undefined),-3.09%
2,Cc1nccn1-c1cc(CNC(=O)C2CCC(=O)NC2)ccn1 (centres undefined),12.3%
3,NC(=O)c1ccc(CNCC2CCN(CCO)CC2)cc1,-5.52%
4,CC(Oc1ccccc1C(F)(F)F)C(=O)NCCNC(=O)C1CC1 (centres undefined),-6.09%
5,COc1c(C2CCCN2C(=O)c2ccoc2)c(C)nn1C (centres undefined),13.3%
6,Cc1cc(NC(=O)CN2CCCC2c2noc(C3CC3)n2)on1 (centres undefined),-7.03%
7,Cc1nnc(NC(=O)CN2CCCC2c2noc(C3CC3)n2)s1 (centres undefined),21.8%
8,O=S1(=O)CCN(c2nc(C3CC3)ns2)CC1,-5.98%
9,C1CN(c2nc(C3CC3)ns2)CCS1,-1.41%
10,O=C(NCCOc1ncc(Cl)cc1Cl)NCc1ccncc1,-1.68%
11,O=C(CCc1ccncc1)NCCOc1ncc(Cl)cc1Cl,-6.13%
12,Cc1nccn1-c1cc(CNC(=O)COCC2CC2)ccn1,-6.02%
13,CC(C)n1cc(CN2CCCN(C(=O)c3ccco3)CC2)cn1,21%
14,Cc1cccc(N(CCC(N)=O)CC(=O)Nc2cc(Cl)ccc2Cl)c1,-5.69%
15,Cc1ccc(C(=O)NCCCn2cncn2)c(=O)[nH]1,21.9%
16,COc1c(C)cnc(CN(C)C(=O)c2cccc(NC(N)=O)c2)c1C,-2.3%
17,Cc1cccc(N(CCC(N)=O)CC(=O)NC2CCCC2)c1,18%
18,COCc1cccc(NC(=O)N(C)Cc2ncc(C)c(OC)c2C)c1,-3.88%
19,CC1CN(C)CCN1C(=O)c1ccc(-n2cnnc2)cc1 (centres undefined),-1.59%
20,COc1c(C)cnc(CN(C)C(=O)Nc2ccc3c(c2)CCO3)c1C,19%
21,COC(=O)c1ccc(NC(=O)CCc2ccncc2)c(C)c1,-11.9%
22,Cc1ccoc1C(=O)N(CCN(C)C)Cc1ccccn1,-2.01%
23,COc1ccccc1C(C)CC(=O)N1CCCS1(=O)=O (centres undefined),-5.37%
24,Cc1cc(C(C)NC(=O)Cn2nc(C)c3ccccc3c2=O)c(C)o1 (centres undefined),18.3%

row,SMILES,cytotoxicity at 70.5 h
1,CC(C)c1cc(C(=O)NCC2(C(N)=O)CCOCC2)nn1C(C)(C)C,-4.75%
2,CC1CCN(CC(=O)NC(C#N)c2cnn(-c3ccccc3)c2)CC1 (centres undefined),-2.96%
3,Cc1cc(N2CCC(NC(C)Cc3ccsc3)CC2)nc(C)n1 (centres undefined),-2.86%
4,COc1cccc(F)c1C(C)NC(=O)NCc1cc(C(C)C)no1 (centres undefined),-12.9%
5,COCCN(CCOC)c1ncccc1I,-4.47%
6,COC(=O)CCC(=O)NC1CCCc2cc(OC(F)F)ccc21 (centres undefined),-13%
7,Cc1ccc(S(=O)(=O)NC(=O)CCOCc2ccccc2)s1,-10.6%
8,CCC(Nc1nnnn1-c1ccccc1)C(=O)Nc1ccccc1C (centres undefined),-11%
9,Cc1cccc(-c2nnc(C(C)N3CCn4c(C)nnc4C3)o2)c1 (centres undefined),-12.4%
10,Cc1cc(OCc2cccc(F)c2)ccc1NC(=O)C(C)NC(N)=O (centres undefined),5.5%
11,CCC(Nc1nnnn1-c1ccccc1)C(=O)NC1CCSCC1 (centres undefined),-9.32%
12,CCc1ccc(C(=O)O)cc1S(=O)(=O)Nc1ccc(=O)n(C)c1,5.54%
13,CCC1CN(C(=O)c2cnc(-c3cnn(C)c3)s2)CCO1 (centres undefined),-6.34%
14,CCNC(=O)N(C)C(c1cccnc1)C(C)C (centres undefined),-9.88%
15,O=C(Cc1ccc(S(=O)(=O)C(F)F)cc1)N1CCC1,-10.6%
16,Cc1cnn(CC(=O)NC2CCCc3cc(OC(F)F)ccc32)c1 (centres undefined),-6.6%
17,O=C(CS(=O)(=O)C1CCCC1)NC1CCCc2cc(OC(F)F)ccc21 (centres undefined),-9.47%
18,Cc1ccsc1C(=O)Nc1cc(Br)c(=O)n(C)c1,-8.88%
19,Cc1csc(C(C#N)C(=O)NCc2cccnc2)n1 (centres undefined),-5.59%
20,Cc1ccc(OCC(C)NS(=O)(=O)N(C)C)cc1 (centres undefined),-5.84%
21,c1ccc(Cn2ccnc2CNC2CCCOc3ccccc32)cc1 (centres undefined),-6.62%
22,COCCCN(C)c1ncccc1I,8.68%
23,Cc1nc(CN(C)C2CCN(Cc3nc4c(F)cccc4[nH]3)C2)no1 (centres undefined),4.6%
24,COCC(O)CN(C)c1ccnc2cc(F)ccc12 (centres undefined),13.1%

row,SMILES,cytotoxicity at 70.5 h
1,CSCc1cc(F)ccc1CNCc1ccncc1,4.11%
2,O=C(Nc1nccs1)C1CCN(Cc2cccc3c2OCCO3)CC1,6.98%
3,Cc1csc(NC(=O)C2CCN(Cc3cccc4c3OCCO4)CC2)n1,8.1%
4,CCN1CCC(CNC(=O)c2cc(Cl)c[nH]2)CC1,-8.09%
5,NC(=O)[C@@H]1Cc2ccccc2CN1S(=O)(=O)N1CCCCC1,-1.22%
6,CC(=O)N(C)c1nc(Cn2nnnc2C(C)(C)C)cs1,-4.99%
7,Cn1cnnc1C1CCN(C(=O)c2cc(-c3ccccc3)on2)CC1,25.4%
8,O=C(NCC1(Sc2ccccc2)CC1)c1ccc(=O)[nH]n1,-6.34%
9,CCC1CCCCCN1C(=O)c1cc(C#N)c(SC)[nH]c1=O (centres undefined),24.7%
10,Cc1noc(C)c1C(=O)N1CCCN(C)c2ccc(Cl)cc21,-3.33%
11,Cc1noc(C)c1C(C)C(=O)N1CCCN(C)c2ccc(Cl)cc21 (centres undefined),-6.12%
12,CC(C)(C)OC(=O)NC(C)(C(N)=O)c1cccc(Cl)c1 (centres undefined),25.4%
13,CC1CCN(C(=O)NCC(=O)N(C)CC(F)(F)F)C1 (centres undefined),-4.12%
14,CC(C)C1CCN(C(=O)NCC(=O)N(C)CC(F)(F)F)CC1,20.8%
15,COCCC(=O)NC(C)(C(N)=O)c1cccc(Cl)c1 (centres undefined),-3.41%
16,CSCc1cc(F)ccc1CNCc1ncc[nH]1,-8.53%
17,CSCc1cc(F)ccc1CNCc1cccc(O)c1,-5.38%
18,CSc1[nH]c(=O)c(C(=O)N2CCCC2C2CCCC2)cc1C#N (centres undefined),-5.31%
19,CN(CC(F)(F)F)C(=O)CNC(=O)N1CCCC(N(C)C)C1 (centres undefined),-8.19%
20,CC1COCCN1Cc1nc(Cc2ccccc2)no1 (centres undefined),-8.66%
21,O=C(NC1CCN(C(=O)C2CCCCC2)C1)c1ccncc1Cl (centres undefined),-9.33%
22,Cc1ccc(CNC(c2cccc(F)c2)c2nccn2C)o1 (centres undefined),-3%
23,Cc1cc(S(=O)(=O)NC(C)(C)CN)c(F)cc1F,-9.88%
